From US10723695B2, “Microbiocidal phenylamidine derivatives” (SYNGENTA PARTICIPATIONS AG, priority 2015, dated 2020)

What was measured:
[1] = test system: Blumeria graminis f. sp. tritici (Erysiphe graminis f. sp. tritici); assay: Blumeria graminis f. sp. tritici / wheat / leaf disc preventative (powdery mildew on wheat); assay type: in vivo; details: foliar, wheat leaf segments cv. Kanzler, compared to untreated control leaf disks, read-out: disease control
Source text: Blumeria graminis f. sp. tritici (Erysiphe graminis f. sp. tritici)/Wheat/Leaf Disc Preventative (Powdery Mildew on Wheat) Wheat leaf segments cv. Kanzler were placed on agar in a multiwell plate (24-well format) and sprayed with the formulated test compound diluted in water. The leaf disks were inoculated by shaking powdery mildew infected plants above the test plates 1 day after application.

Phakopsora pachyrhizi = Phakopsora pachyrhizi / soybean / leaf disk preventative (soybean rust); assay type: in vivo; details: foliar, soybean leaf disks, compared to untreated control leaf disks, read-out: disease control
Method in brief: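 Four-week-old soybean plants sprayed with formulated compound in water; leaf disks cut 1 day later, inoculated on the lower surface with spore suspension. Held 24-36 h dark at 20° C, 75% rh, then 20° C with 12 h light/day; % diseased disk area scored 12-14 days after application.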

[2] = test system: Puccinia recondita f. sp. tritici; assay: Puccinia recondita f. sp. tritici / wheat / leaf disc preventative (brown rust); assay type: in vivo; details: foliar, wheat leaf segments cv. Kanzler, compared to untreated control leaf disks, read-out: disease control
Method in brief: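 Wheat leaf segments (cv. Kanzler) on agar were sprayed preventatively with formulated compound diluted in water and inoculated with spores 1 day later. They were incubated at 19 °C, 75% rh, 12 h light/12 h dark. Percent disease control versus untreated was scored 7-9 days after application.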

[3] = test system: Puccinia recondita f. sp. tritici; assay: Puccinia recondita f. sp. tritici / wheat / leaf disc curative (brown rust); assay type: in vivo; details: foliar, 24 h, wheat leaf segments cv. Kanzler, curative (applied 1 day after inoculation), compared to untreated control leaf disks, read-out: disease control
Method: Puccinia recondita f. sp. tritici/Wheat/Leaf Disc Curative (Brown Rust) Wheat leaf segments cv. Kanzler are placed on agar in multiwell plates (24-well format). The leaf segments are inoculated with a spore suspension of the fungus. Plates were stored in darkness at 19° C. and 75% rh. The formulated test compound diluted in water was applied 1 day after inoculation.

CCN(C)/C=N/c1cc(OC)c(C(O)(CC)c2ccccc2)cc1C (centres unmarked) [Compound E1.126]
pest or weed control at 200 ppm [1]: ≥ 80%
pest or weed control at 200 ppm (Phakopsora pachyrhizi): ≥ 80%
pest or weed control at 200 ppm [2]: ≥ 80%
pest or weed control at 200 ppm [3]: ≥ 80%
melting point: 87 to 89 °C
